The record followed here is BindingDB's records for doi:10.7270/Q2B27SQ0 (Nmmlsc, 2008).

Each structure is given as a SMILES string. pEC50: −log10 of the molar value. Counter-ions that a name gives are not always drawn.

One assay deals with Apoptosis regulator Bcl-2 (Homo sapiens, UniProt P10415). Briefly: PubChem AID 950.
Apoptosis regulator Bcl-2, sequence (P10415 whole entry): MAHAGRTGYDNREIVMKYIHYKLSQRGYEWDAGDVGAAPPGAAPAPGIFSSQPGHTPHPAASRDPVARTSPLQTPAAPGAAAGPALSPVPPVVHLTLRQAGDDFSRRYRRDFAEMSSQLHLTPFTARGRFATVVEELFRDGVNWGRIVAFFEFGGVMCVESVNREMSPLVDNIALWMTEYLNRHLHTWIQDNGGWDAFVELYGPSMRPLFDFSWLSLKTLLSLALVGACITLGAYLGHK
Conditions: not given
In turn, `Nc1c(C(=O)NC2CC2)sc2nc3c(c(-c4ccco4)c12)CC/C3=C/c1ccco1` [SMR000259554] showed a pEC50 of 5.33.
Molecule `CC(=NNC(=O)c1cc(O)c(O)c(O)c1)c1ccc([N+](=O)[O-])cc1` [SMR000312589] gave a pEC50 of 5.22.
Same read-out and setting: the value for `CN1CCc2cccc3c2[C@H]1Cc1ccc(O)c(O)c1-3` [APOMORPHINE HYDROCHLORIDE] was 4.37; that for `CCC(=O)N(CC)C1C(=O)C(=O)c2ccccc2C1=O` (stereo unspecified) [N-ethyl-N-(1-hydroxy-3,4-dioxo-2-naphthalenyl)propanamide] was 6.01.
Same read-out and setting: the figure for `Nc1c(C(=O)NCC2CCCO2)sc2nc3c(c(-c4ccco4)c12)CC/C3=C\c1ccco1` (stereo unspecified) [SMR000259502] is 5.28; for `Cc1cc(N)ccc1N1CCCC1` [3-methyl-4-(1-pyrrolidinyl)aniline;hydrochloride] it is 4.86.
The same measure, in the same setting: the value for `O=C1c2ccccc2-c2onc3ccc(NCCCn4ccnc4)c1c23` [SMR000044769] was 5.39; that for `Clc1ccc2c(N=NCc3ccccc3Br)ccnc2c1` [MLS000336087] was 5.04.
Take `O=[N+]([O-])c1ccc(N=NCc2ccc(O)c(O)c2O)c(S(=O)(=O)N2CCOCC2)c1` [MLS000336720]: the pEC50 is 5.33.
Same read-out and setting: the figure for `COc1cc(/C=C2\CC/C(=C\c3cc(OC)c(O)c(OC)c3)C2=O)cc(OC)c1O` [(2E,5E)-2,5-bis[(4-hydroxy-3,5-dimethoxyphenyl)methylidene]cyclopentan-1-one] is 5.29; for `O=C(NCc1ccccc1)c1ccc2nc(-c3ccco3)c(-c3ccco3)nc2c1` [2,3-bis(furan-2-yl)-N-(phenylmethyl)quinoxaline-6-carboxamide] it is 5.13.
For `CN1CCc2cccc3c2[C@@H]1Cc1ccc(O)c(O)c1-3`, the pEC50 is 4.79.
Same read-out and setting: the value for `OCCN1CCN(CCCc2c3c(cc4c2CCC4)CCC3)CC1` [MLS000698424] was 4.75.
As to `CC(=O)c1ccc(NC(=O)c2ccc3nc(-c4ccco4)c(-c4ccco4)nc3c2)cc1` [N-(4-acetylphenyl)-2,3-di-2-furyl-6-quinoxalinecarboxamide], the pEC50 was 5.07. Compared with the last molecule, the pEC50 is 0.32 log units higher.
For the molecule `Cc1nc2ncccn2c1-c1csc(Nc2ccc(O)cc2)n1`, the pEC50 was 6.17.
Same read-out and setting: the figure for `CCN1/C(=C/C(C)=C/c2sc3ccccc3[n+]2CC)Sc2ccccc21` [SMR000354813] is 4.65; for `CCOC(=O)C1CCN(C(=O)Nc2ccc3nc(-c4ccco4)c(-c4ccco4)nc3c2)CC1` [MLS000113285] it is 5.18; for `c1ccc(-c2nc(N3CCOCC3)[s+]n2-c2ccccc2)cc1` it is 4.86.
Still for that read-out and setting: the value for `COc1cccc2c(SCC(=O)NN=Cc3ccc(O)cc3O)cc(C)nc12` [N'-[(E)-(2-hydroxy-4-oxo-1-cyclohexa-2,5-dienylidene)methyl]-2-[(8-methoxy-2-methyl-4-quinolinyl)thio]acetohydrazide] was 4.62.

The same assay, now with this note: inactive by the depositor's call.
`O=C1c2ccccc2-c2onc3ccc(NCc4ccco4)c1c23` [MLS000080234] showed a pEC50 of 4.42.
`O=C(Nc1cccc(C(F)(F)F)c1)c1ccc2nc(-c3ccco3)c(-c3ccco3)nc2c1` [SMR000142217] had a pEC50 of 4.96.
The molecule `CCN1C(=O)/C(=C/C=C2\C=CN(CC)c3ccccc32)SC1=S` showed a pEC50 of 4.45.
On the same count and under the same terms, the value for `C/C(=C\c1ccco1)C1Nc2cccc3cccc(c23)N1` [MLS000055728] was 4.85; that for `Cc1ccc(-c2ccc(/C=C/C(=O)c3ccccc3)o2)cc1` was 5.07.
The molecule `Cc1ccc(-c2ccc(/C=C3\SC(N4CCOCC4)=NC3=O)o2)cc1` [(5Z)-5-[[5-(4-methylphenyl)-2-furanyl]methylidene]-2-(4-morpholinyl)-4-thiazolone] gave a pEC50 of 4.35.
On the same count and under the same terms, the value for `O=C(Nc1ccc2nc(-c3ccco3)c(-c3ccco3)nc2c1)NC1CC1` [SMR000118524] was 5.03.
Molecule `C#CCn1cc(C=C2C(=O)c3ccccc3C2=O)c2ccccc21` [SMR000196125] had a pEC50 of 4.86.
Regarding `Cc1cccc(OCC(=O)NCC(=O)NN=Cc2cc(Br)ccc2OCc2ccccc2)c1` [N-[(5-bromanyl-2-phenylmethoxy-phenyl)methylideneamino]-2-[2-(3-methylphenoxy)ethanoylamino]ethanamide], the pEC50 is 5.24. This pEC50 is 0.38 log units higher than that of the molecule before.
As to `CCOc1ccccc1CNc1ccc(O)cc1`, the pEC50 is 5.44. This pEC50 is 0.20 log units higher than that of the molecule before.
In turn, `COc1ccc(/C=C/C(=O)c2cc(Br)ccc(=O)c2O)cc1` [MLS000702099] had a pEC50 of 4.47.
`CCOC(=O)C1=C(Cc2ccc(OC)cc2)C(=O)c2ccccc2C1=O` [SMR000136995] showed a pEC50 of 4.87. This pEC50 is 0.40 log units higher than that of the molecule before.
The same measure, in the same setting: the figure for `CC(C)(C)NC(=O)COc1ccc(CNc2ccc3[nH]c(O)nc3c2)cc1` [N-tert-butyl-2-[4-[[(2-oxidanylidene-1,3-dihydrobenzimidazol-5-yl)amino]methyl]phenoxy]ethanamide] is 5.33; for `CCN(CC)C(=O)COC(=O)c1cc(-c2ccco2)nc2ccccc12` [SMR000377201] it is 5.31.
`O=C1C(=Cc2ccco2)NC(=S)N1c1ccccc1` [(5E)-5-(furan-2-ylmethylidene)-3-phenyl-2-sulfanylideneimidazolidin-4-one] showed a pEC50 of 4.56. This pEC50 is 0.75 log units lower than that of the molecule before.
In turn, `Cc1ccc(C)c(/C=C/C(=O)c2ccccc(=O)c2O)c1` gave a pEC50 of 4.71. This pEC50 and that of the molecule before are within 0.2 log units of each other.
For `COC(=O)c1c(C(=O)OC)c2cccc3cc(-c4ccccc4)c4ccc1c4n32` [SMR000161417], the negative logarithm of the EC50 (pEC50) is 5.74. This pEC50 is 1.03 log units higher than that of the molecule before.
On the same count and under the same terms, the value for `COc1ccc2nc(-c3ccco3)c(-c3ccco3)nc2c1` [2,3-di-2-furyl-6-methoxyquinoxaline] was 4.84; that for `c1ccc(Nc2cccc(Nc3ccccc3)n2)cc1` [N,N'-diphenyl-2,6-pyridinediamine] was 5.55; that for `COC(=O)CSc1ncnc2c1sc1nc(-c3ccco3)c3c(c12)CC(C)(C)OC3` [MLS000039339] was 4.56.
`Cc1ccc(C=NNC(=O)CSc2nnc(-c3ccc(Cl)cc3)n2-c2ccccc2)o1` [SMR000218122] showed a pEC50 of 5.07.
`CSc1nnc2c3cc(C)ccc3n(Cc3ccccc3)c2n1` [SMR000046397] showed a pEC50 of 4.53.
On to `CNc1ccc(Br)cc(C(=O)/C=C/c2cccc(OC)c2)c1=O` [4-bromo-2-[3-(3-methoxyphenyl)acryloyl]-7-(methylamino)-2,4,6-cycloheptatrien-1-one], for which the pEC50 was 4.26.
The same measure, in the same setting: the value for `CN1CCN(C2=C(Cl)C(=O)C(c3cnc(N4CCCCC4)s3)=C(Cl)C2=O)CC1` was 6.80.
In turn, `O=C(Nc1ccc(N2CCOCC2)cc1)Nc1ccc2nc(-c3ccco3)c(-c3ccco3)nc2c1` [N-(2,3-di-2-furyl-6-quinoxalinyl)-N'-[4-(4-morpholinyl)phenyl]urea] showed a pEC50 of 5.05.
The same measure, in the same setting: the value for `O=C(/C=C\c1ccc(-c2ccccc2)o1)c1ccccc1` [(Z)-1-phenyl-3-(5-phenyl-2-furanyl)-2-propen-1-one] was 4.46.
The same measure, in the same setting: the figure for `Cc1cc(C)nc(SCc2cc(=O)c(OC(=O)c3ccc(Cl)c([N+](=O)[O-])c3)co2)n1` [4-chloro-3-nitrobenzoic acid [6-[[(4,6-dimethyl-2-pyrimidinyl)thio]methyl]-4-oxo-3-pyranyl] ester] is 5.07; for `COc1ccc(-n2c(=O)c3ccccc3c3ccccc3c2=O)c(OC)c1` it is 4.87.
`N#Cc1cc(-c2ccccc2)nn1-c1ccccc1` had a pEC50 of 4.40.
Molecule `COc1ccc(CCNC(=O)c2ccc3nc(-c4ccco4)c(-c4ccco4)nc3c2)cc1OC` [N-[2-(3,4-dimethoxyphenyl)ethyl]-2,3-di-2-furylquinoxaline-6-carboxamide] had a pEC50 of 4.87.
Still for that read-out and setting: the value for `CNc1ccc(Br)cc(C(=O)/C=C/c2cc(OC)ccc2OC)c1=O` [SMR000115626] was 5.05; that for `O=C(c1ccccc1)c1ccc2nc(-c3ccco3)c(-c3ccco3)nc2c1` was 4.80; that for `O=C(/C=C/c1ccccc1Cl)c1ccccc(=O)c1O` [3-[(E)-3-(2-chlorophenyl)prop-2-enoyl]-2-oxidanyl-cyclohepta-2,4,6-trien-1-one] was 4.83.
Still for that read-out and setting: the figure for `CCOC(=O)c1c(O)nc2ccc(Cl)c3c2c1-c1ccccc1C3=O` [MLS000704595] is 5.12; for `CN(C)c1ncc(C2=C(Cl)C(=O)C(N3CCCC3)=C(Cl)C2=O)s1` it is 6.68.
As for `CCOC(=O)c1nc(Nc2ccc(C(=O)OC)cc2)c2ccccc2n1` [ethyl 4-(4-methoxycarbonylanilino)quinazoline-2-carboxylate], the pEC50 was 4.82.
Turning to `Cc1nc2ncccn2c1-c1csc(Nc2ccccc2)n1` [4-(2-methyl-3-imidazo[1,2-a]pyrimidinyl)-N-phenyl-2-thiazolamine], the pEC50 is 5.05. This pEC50 lies 0.23 log units higher than the previous one.
The molecule `O=C(NC1=C(NC2CCS(=O)(=O)C2)C(=O)c2ccccc2C1=O)c1ccccc1` (stereo unspecified) [N-[3-[(1,1-dioxo-3-thiolanyl)amino]-1,4-dioxo-2-naphthalenyl]benzamide] showed a pEC50 of 4.71. This pEC50 is 0.34 log units lower than that of the molecule before.
In turn, `CCc1ccc(/C=C/C(=O)c2cc(Br)ccc(=O)c2O)cc1` [5-bromo-3-[(E)-3-(4-ethylphenyl)-1-oxoprop-2-enyl]-2-hydroxy-1-cyclohepta-2,4,6-trienone] showed a negative-log EC50 (pEC50) of 4.12. Against the preceding molecule, the pEC50 is 0.59 log units lower.
On the same count and under the same terms, the figure for `CCOC(=O)c1ccc(Nc2nc(C(=O)OCC)nc3ccccc23)cc1` is 5.82; for `c1ccc(C2=Nc3cccc4cccc(c34)N2)cc1` it is 4.58; for `Cc1ccc(NC2=C(NC(=O)c3ccccc3)C(=O)c3ccccc3C2=O)cc1Cl` [MLS000392290] it is 5.36.
`O=C(Nc1ccc2nc(-c3ccco3)c(-c3ccco3)nc2c1)N1CCN(c2ccccn2)CC1` showed a pEC50 of 5.05.
Still for that read-out and setting: the value for `COc1cc(C2Nc3cccc4cccc(c34)N2)ccc1OC(C)=O` [Acetic acid 4-(2,3-dihydro-1H-perimidin-2-yl)-2-methoxy-phenyl ester] was 4.94.
The molecule `Cc1cc(-c2csc(N)n2)c(C)n1C` [4-(1,2,5-trimethyl-3-pyrrolyl)-2-thiazolamine] gave a pEC50 of 4.33.
`c1coc(C2=Nc3cccc4cccc(c34)N2)c1` [2-(2-furanyl)-1H-perimidine] showed a pEC50 of 5.01.
On the same count and under the same terms, the figure for `O=C1c2ccccc2-c2onc3ccc(N4CCCC4)c1c23` [SMR000279741] is 4.55.
